Test results published in patent US20160361391A1, “REDUCTION OF TRAF1 LEVELS COMBINED WITH NUTRIENT STRESS FOR TREATING LYMPHOCYTE-RELATED CANCERS” (THE GOVERNING COUNCIL OF THE UNIVERSITY OF TORONTO, priority 2014, published 2016).

How the values were obtained:
mTORC1 = experiment: pS6K / pS6 level as marker of mTORC1 activation; assay type: cell-based, human; conditions: RAJI lymphoma cells
Text: Left: Levels of pS6K in RAJI control cells. Right: Levels of pS6K in RAJI shTRAF1. Upper panels show pS6K, lower panels show GAPDH to control for equal loading. B. Schematic showing link between nutrient stress, mTORC1 and pS6. C. Left: Representative flow cytometry analysis of TRAF1 and phospho-S6 expression in Raji shCTRL and Raji shTraf1 cells. […] FMO is fluorescence minus one control stain. Right: Correlation plot of TRAF1 versus phospho-S6 expression in lymphoma and CLL cell lines (gated on live cells). All flow cytometry is based on gating on live cells (using live/dead staining marker).
In an effort to understand the mechanism of synergy between lowering TRAF1 levels and increased sensitivity to Erwinase, the activity of mTORC1, a key sensor of the nutrient state of the cells, was examined. Nutrient stress inhibits the activation of mTORC1, a key regulator of proliferation, metabolism and cell survival.^35 PhosphoS6K (pS6K), a downstream target of mTORC1, can be used as a marker of mTORC1 activation. […] However, unexpectedly, TRAF1 knockdown cells had lower basal level of pS6K prior to treatment, perhaps explaining the synergistic effect of TRAF1 knockdown with Erwinase treatment (FIG. 11A—compare right to left western blots). […] Further, a correlation between the level of TRAF1 in the cell and the activity of mTORC1 as measured by pS6 levels was shown (FIG. 11C).

RAJI cells = experiment: MTT cell viability / growth assay; assay type: cell-based, human; conditions: RAJI
Protocol: MTT reagent was then solubilized with DMSO and absorbance was measured by ELISA plate reader at 560 nm and referenced to absorbance at 620 nm. Data are plotted as fold change relative to untreated shCtrl RAJI cells.
It was next asked what the effect of reducing TRAF1 and its signalling partner TRAF2 in lymphoma had on cell proliferation and survival. […] To determine whether this effect was due to death of the lymphoma cells, Annexin V and propidium iodide (PI) staining of the lymphomas were analyzed at different times after transfer to Erwinase containing medium. Annexin V binds to phosphatidyl serine, which becomes exposed on the surface of cells as they undergo apoptosis. Then, cells become permeable to propidium iodide upon death. […] The slightly greater effect on cell death of direct TRAF1 knockdown compared to PKN1 knockdown is consistent with the smaller effect of PKN1 knockdown on TRAF1 levels compared to direct TRAF1 knockdown with shTRAF1.
FIG. 7 provides a rationale for a screen for a PKN1 inhibitor that synergizes with Erwinase: In particular, the assay is used to look for inhibitors that act at nanomolar concentration to reduce cell survival. […] Inhibitors that reduce the signal in the MTT assay by at least 3 fold relative to Erwinase alone will be identified as potential PKN1 inhibitors. This initial screen is amenable to a 96 well plate assay in which each drug candidate is tested on control RAJI cells with and without Erwinase as well as shPKN1 RAJI cells with Erwinase. Candidate drugs that lower the signal on control RAJI cells only in the presence but not in the absence of Erwinase, and have no effect on PKN1 knockdown cells treated with Erwinase, represent candidates for kinase inhibitors that act through PKN1 inhibition to reduce TRAF1 levels. The candidates can then be verified by determining the inhibitory effects on TRAF1 levels.

Substance: shTRAF1: shRNA designed to knockdown expression of TRAF1, sequence CGTGTGTTTGAGAACATTG (Open Biosystems TRC library)
- level of pS6K / pS6 (mTORC1): levels of pS6 are lower
- cell growth / proliferation with Erwinase (MTT) (RAJI cells; 1 IU/ml Erwinase): sensitizes lymphoma to growth inhibition by Erwinase
- tumour growth rate (MTT) (RAJI cells; complete culture medium, no Erwinase): no impact on the tumour growth rate
